Assays:
[1] = penetration through excized rodent (mice) skin, Franz' diffusion cells; type: in vitro ADME; settings: galanthamine, mice skin in vitro; addition of the acid as penetration enhancer
Experimental: 150 g 52.8% (w/w) active substance-containing adhesive solution result which is spread on an aluminized and siliconized polyethylene sheet by means of a 350 μm coating knife. After the solvents have been removed by drying for 30 min. up to 60° C., the adhesive film is covered with a polyester sheet (15 μm). An area of 16 cm^2 is punched by means of a suitable cutting tool and the edges are separated off. The release relating to both this and the other examples is listed in the table; the list indicates both the controlled release into a physiological saline and through excized rodent skin.
The in-vitro-release was determined in a shaking water bath at 37° C. The acceptor medium was 100 ml physiological saline which was completely changed after 2, 4 and 8 hours. The concentration was determined by HPLC after 2, 4, and 8 and 24 hours. The penetration through mice skin was measured by means of Franz' diffusion cells.

cholinesterase = settings: cited from earlier work
[2] = vs physostigmine or neostigmine; cited from earlier work

SMILES	penetration rate increase by addition of acid [1]	other results
CCCCCCCC(=O)O [octanoic acid]	1.5 factor	
CC(C)CCCCCCCCCCCCCCC(=O)O [isostearic acid]	1.5 factor	
COc1ccc2c3c1OC1CC(O)C=CC31CCN(C)C2 (centres unmarked) [galanthamine, 4a,5,9,10,11,12-hexahydro-3-methoxy-11-methyl-6H-benzofuro (3a,3,2-ef) (2) benzazepin-6-ol]		cholinesterase inhibition (in words) (cholinesterase; pharmacological properties): reversibly acting cholinesterase inhibitors; cholinesterase inhibiting-action, relative to the dosage (cholinesterase; vs physostigmine or neostigmine): slightly lower; therapeutic range [2]: three to six times broader; toxicity (in words) [2]: not as toxic as physostigmine or neostigmine
C=CCCCCCCCCC(=O)O [undecenoic acid]	1.5 factor	
CCCCCCCC/C=C\CCCCCCCC(=O)O [oleic acid]	1.5 factor	
